Here are results for 2 molecules from patent publication US20200190101A1, “Composition Containing Novel Glutamic Acid Derivative And Block Copolymer, And Use Thereof” (Nippon Kayaku Kabushiki Kaisha, priority 2015, published 2020).

Data set [1] has as its system γ-glutamyl transpeptidase (GGT). In words: γ-Glutamyl transpeptidase (GGT) enzyme recognition test. It is filed as biochemical. Particulars: 0.34 mg/mL DMSO solution diluted with PBS + 0.227 mg/mL GGT solution, 37° C. How it is done:
To 0.150 mL of this doxorubicin-bonded glutamic acid derivative (prodrug) PBS solution, 0.150 mL of a 2 U/mL GGT solution obtained by dissolving GGT (0.22 mg, 8 U/mg) (Sigma-Aldrich Company) in PBS (0.880 mL) was added, and the mixture was allowed to react at 37° C.
The reaction liquid was analyzed by HPLC, and thus the residual ratio of the doxorubicin-bonded glutamic acid derivative (prodrug) and the production ratio of doxorubicin were determined.
To 0.100 mL of the doxorubicin-bonded glutamic acid derivative PBS solution, 0.100 mL of a 2 U/mL GGT solution obtained by dissolving GGT (0.38 mg, 8 U/mg) (Sigma-Aldrich Company) in PBS (1.520 mL) was added, and the mixture was allowed to react at 37° C. […]

Data set [2] deals with OS-RC-2 cells having high GGT activity. Description: cells. Type of data set: cell-based, human. The following applies: Homo sapiens, OS-RC-2, read-out: Cell proliferation inhibitory activity. The method, then: (§1) After the cells were incubated for 6 hours, the interior of the wells was washed, and after the cells were further incubated for 3 days, the cells were immobilized with methanol and stained using Methylene Blue dye. After staining, the dye was extracted with a 0.3% aqueous solution of hydrochloric acid was extracted, and the light absorbance at 660 nm was measured. For the light absorbance thus obtained, the cell proliferation suppressive activity was evaluated based on the reduction ratio for the light absorbance measured from cells to which the compound was not added.
(§2) By a similar operation, the cell proliferation suppressive activity was evaluated from the light absorbance, using doxorubicin that was not converted to a glutamic acid derivative. The results are shown in FIG. 1 (OS-RC-2 cells having high GGT activity) and FIG. 2 (SK-OV-3 cells having low GGT activity).
(§3) The cell proliferation inhibitory activity of the EHC-bonded glutamic acid derivative according to Synthesis Example 6 was evaluated using OS-RC-2 cells (RIKEN BioResource Center), which are known to have high GGT activity, and SK-OV-3 cells (American Type Culture Collection), which are known to have low GGT activity.
(§4) On a 96-well plate, OS-RC-2 cells having high GGT activity and SK-OV-3 cells having low GGT activity were each inoculated in an amount of 4,000 cells/well and were incubated for one day at 37° C. and 5% CO2, and then the EHC prodrug according to Synthesis Example 6 was added to the cells at a final concentration of 0.0001 to 1 μM. After the cells were incubated for 6 hours, the interior of the wells was washed, and the cells were further incubated for 3 days. After the incubation, the cells were immobilized with methanol and were stained using Methylene Blue dye. After staining, the dye was extracted with a 0.3% aqueous solution of hydrochloric acid, and the light absorbance at 660 nm was measured. The cell proliferation suppressive activity was evaluated based on the reduction ratio for the light absorbance thus obtained, with respect to the light absorbance measured from cells to which the compound was not added.
(§5) By a similar operation, EHC, which was an active ingredient of Synthesis Example 6, was used without modification, and the cell proliferation suppressive activity was evaluated from the light absorbance.

Data set [3] can be described thus: Phosphate buffered physiological saline (PBS) solution stability test. The following applies: PBS (DMSO stock), 37° C., after 24 hours. It is filed as physicochemical. How it is done:
0.148 mL of the doxorubicin-bonded glutamic acid derivative PBS solution was dissolved in 0.148 mL of a PBS solution, and the solution was allowed to react at 37° C.
PBS (0.100 mL) was added to the EHC-bonded glutamic acid derivative solution (0.100 mL), and the mixture was allowed to react at 37° C. The reaction liquid was analyzed by HPLC, and thereby the residual ratio of the EHC-bonded glutamic acid derivative was determined.
PBS (0.117 mL) was added to the camptothecin-bonded glutamic acid derivative solution (0.117 mL), and the mixture was allowed to react at 37° C. The reaction liquid was analyzed by HPLC, and thereby the residual ratio of the glutamic acid derivative was determined.
The reaction liquid was analyzed by HPLC, and thereby the residual ratio of the EHC-bonded glutamic acid derivative was determined.

The subject of data set [4] is human renal cell cancer OS-RC-2. Description: Test on antitumor effect of Synthesis Example 6, OS-RC-2. It is filed as in vivo, SCID mice. The following applies: three times at an interval of 4 days. How it is done: By an operation similar to that of Test Example 15, to those mice having human renal cell cancer OS-RC-2 transplanted thereinto, the EHC-bonded glutamic acid derivative of Synthesis Example 6 was intravenously administered through the caudal vein, on the 17th day after tumor transplantation, at a dose of 20, 40, or 80 mg/kg three times in total at an interval of 4 days.
(§6) After the administration, the major axis (L) and the minor axis (W) of a tumor were measured using calipers at an interval of 2 to 3 days, the tumor volume was calculated by the formula: (L×W^2)/2, and the tumor volume change rate from the administration initiation day was determined.

Data set [5] concerns SK-OV-3 cells having low GGT activity. Description: cells. It is filed as cell-based. Particulars: Homo sapiens, SK-OV-3, read-out: Cell proliferation inhibitory activity. How it is done: as §1, §2, §3, §4, §5
Data set [6] can be described thus: Test on pharmacokinetics of Synthesis Example 6 (tissue AUC, OS-RC-2 tumor-bearing mice). Particulars: mouse, in vivo. On the set-up: species or system SCID mice. The method, then:
Human renal cell cancer OS-RC-2 tumors that had been subcutaneously subcultured in SCID mice were produced into blocks that measured about 2 mm on each side, and the blocks were subcutaneously transplanted into SCID mice using a trocar.
At time points of 5 minutes, 1 hour, 3 hours, and 6 hours after the administration, various tissues such as blood plasma, liver, bone marrow, and tumor were collected under ether anesthesia. The drug concentrations of EHC as an active drug of Synthesis Example 6, the unchanged drug of Synthesis Example 6, and the unchanged drug of CPT-11 in the various tissues were quantitatively analyzed by a LC-MS/MS method under the following measuring instrument and conditions.
From the concentrations of EHC, the EHC-bonded glutamic acid derivative according to Synthesis Example 6, and CPT-11 in the tissues at various time points, the AUC0-6 hr (μg·hr/mL or g) values of the various components up to 6 hours after the initiation of administration were calculated. As the prodrug activation rates of Synthesis Example 6 and CPT-11 in the various tissues, the AUC0-6 hr ratios of the active drug with respect to the unchanged drug (AUCEHC/AUCSynthesis Example 6 unchanged drug, and AUCEHC/AUCCPT-11) were determined.

Data set [7] has as its system OS-RC-2 cells having high GGT activity. It is filed as cell-based, human. The following applies: GGsTop 10 μM, compound 0.0001 to 1 μM. The method, then:
OS-RC-2 cells were inoculated by a method similar to that of Test Example 3. […] After the cells were incubated for 6 hours, the interior of the wells was washed, and after the cells were further incubated for 3 days, the cell proliferation suppressive activity was evaluated by a method similar to that of Test Example 3.
By a similar operation, the cell proliferation suppressive activity was evaluated using doxorubicin that was not glutamic acid-derivatized, from the light absorbance of the compound.
The GGT activity dependency of the cell proliferation inhibitory activity of the EHC-bonded glutamic acid derivative according to Synthesis Example 6 was evaluated using OS-RC-2 cells having high GGT activity.
OS-RC-2 cells were inoculated by a method similar to that of Test Example 10. After the cells were incubated for one day, GGsTop (Wako Pure Chemical Industries, Ltd.), which is a GGT inhibitor, was added to the cells at a final concentration of 10 μM, and the cells were incubated for one hour. Subsequently, the EHC-bonded glutamic acid derivative according to Synthesis Example 6 was added to the cells at a final concentration of 0.0001 to 1 μM. After the cells were incubated for 6 hours, the interior of the wells was washed, and after the cells were incubated for 3 days, the cell proliferation suppressive activity was evaluated by a method similar to that of Test Example 10.
By a similar operation, the cell proliferation suppressive activity was evaluated using EHC, which is the active ingredient of Synthesis Example 6, from the light absorbance of the compound.

The format of data set [8] is in vitro ADME. Particulars: 24 h, 0.0856 mg/mL. How it is done: Mouse blood plasma (0.180 mL) was added to a 0.856 mg/mL DMSO solution of the EHC-bonded glutamic acid derivative of Synthesis Example 6 (0.020 mL), and the mixture was allowed to react at 37° C.
The reaction liquid was analyzed by HPLC, and thereby the residual ratio of the EHC-bonded glutamic acid derivative was determined. 94% of the EHC-bonded glutamic acid derivative prodrug remained after 24 hours.

The test system of data set [9] is Human renal cell cancer OS-RC-2. Description: Test on antitumor effect of Example 6, OS-RC-2. Type of data set: in vivo, nude mice. The following applies: 20 mg/kg in terms of epirubicin, i.v. once. The method, then: Human renal cell cancer OS-RC-2 was transplanted into nude mice similarly to Test Example 15, and after tumor engraftment was confirmed, the composition of Example 6 according to the present invention was dissolved in 5% glucose. The solution was intravenously administered through the caudal vein once at a dose of 10 or 20 mg/kg in terms of epirubicin. Furthermore, as a control drug, epirubicin hydrochloride was dissolved in a physiological solution, and the solution was intravenously administered through the caudal vein once at a dose of 10 or 20 mg/kg in terms of epirubicin.
as §6

Each structure is given as a SMILES string. Where a name gives a salt, the structure may show the parent alone.

With `CCc1c2c(nc3ccc(OCc4ccc(NC(=O)CC[C@H](N)C(=O)O)cc4)cc13)-c1cc3c(c(=O)n1C2)COC(=O)[C@]3(O)CC` [Synthesis Example 6, 10-(4-((S)-4-amino-4-carboxybutanamido)benzyloxy)-7-ethylcamptothecin ditrifluoroacetate], the “Disappearance of the glutamic acid derivative and production of EHC by GGT” value in data set [1] was “rapidly disappeared in one hour of the reaction and produced EHC”. Further, the inhibition at 0.01 µM in data set [2] was found to be 25%; in data set [5] it was 1.3%. The “Residual ratio of the glutamic acid derivative in PBS” value in data set [3] is listed as 90%. The “Antitumor effect (relative tumor volume)” value was “noticeable tumor regression effect” in data set [4] (80 mg/kg-administered group, i.v.) and “dose-dependent antitumor effect” in [4] (20, 40, or 80 mg/kg i.v.). In addition, the “Activation rate AUCEHC/AUC unchanged drug” value in [6] was 0.03-0.16 times. The “Effect of GGT inhibitor on cell proliferation suppressive activity” value in data set [7] is reported as “inhibited the activity”. Moreover, the “Residual ratio of the glutamic acid derivative in mouse blood plasma” value in [8] came to 94%.

On to `COc1cccc2c1C(=O)c1c(O)c3c(c(O)c1C2=O)C[C@@](O)(C(=O)CO)C[C@@H]3O[C@H]1C[C@H](N)[C@@H](O)[C@H](C)O1` [epirubicin hydrochloride], for which the “Toxicity (death of mice)” value in data set [9] was “the mice died 8 days after the administration due to toxicity”.
